Source: paper PMC12524408 (International Journal of Molecular Sciences, 2025)

Experiments:
RAMP1, RAMP2, RAMP3, CLR [1] = assay: Gene expression of receptor components in distal colon, Study No. P200487; type: in vivo, mouse; conditions: 25 and 250 nmol/kg i.v., day 12, qPCR
From the text: Figure 6 Therapeutic effects of PEG-AM administered after disease onset in DSS-induced colitis (Study No. P200487). (a) Overview of the experimental design. Groups: vehicle (n = 6), PEG-AM 25 nmol/kg (n = 6), 250 nmol/kg (n = 6). (b) Time course of total inflammation scores after PEG-AM administration. (c) Colon length, * p < 0.05, one-way ANOVA followed by Dunnett’s multiple-comparisons test. ns, not significant. (d) Colon weight-to-length ratio, * p < 0.05, one-way ANOVA followed by Dunnett’s multiple-comparisons test. ns, not significant. (e) PEG-AM plasma concentrations on day 12. (f–i) Fold changes in gene expression of RAMP1 (f), RAMP2 (g), RAMP3 (h), and CLR (i).
(§1) After measuring colon length and weight, distal colon tissue was collected, immersed in RNAlater (Thermo Fisher Scientific K.K.), and stored at −80 °C until RNA extraction. Total RNA was extracted using the RNeasy Micro Kit (Qiagen, Singapore) and quantified using a DeNovix DS-11 Microvolume Spectrophotometer. cDNA was synthesized from 2 μg of total RNA using a high-capacity cDNA Reverse Transcription Kit (Thermo Fisher Scientific K.K.). Quantitative PCR was performed using the StepOnePlus Real-Time PCR System (Applied Biosystems, Waltham, MA, USA) and TaqMan Gene Expression Assays for mouse RAMP1, RAMP2, RAMP3, CLR (CALCRL), and GAPDH (internal control). […]

DSS-induced colitis = assay: Effect of 25 nmol/kg PEG-AM in DSS-induced colitis (Study No. P180567); type: in vivo, mouse; conditions: 25 nmol/kg single i.v. one day before DSS, vs control, n = 20
From the text: The detailed rationale for this choice is provided in the Discussion. Two groups (control and treatment with 25 nmol/kg PEG-AM) were compared, each consisting of 20 animals.  Figure 5 Effect of 25 nmol/kg PEG-AM in DSS-induced colitis (Study No. P180567). (a) Overview of the experimental design. Groups: vehicle (n = 20), PEG-AM 25 nmol/kg (n = 20). (b) Total inflammation scores on day 8. ** p < 0.01, Mann–Whitney U test. (c) Bloody stool scores on day 8, *** p < 0.001, Mann–Whitney U test. (d) Colon length. (e) Colon weight-to-length ratio, ** p < 0.01, unpaired t-test. (f) PEG-AM plasma concentrations on day 8. (g–j) Fold changes in gene expression of RAMP1 (g), RAMP2 (h), RAMP3 (i), and CLR (j). * p < 0.05, unpaired t-test. To evaluate the pharmacological effects of PEG-AM, three animal studies were conducted by the LSI Medience Corporation following the Animal Welfare Act and institutional approval. Seven-week-old male C57BL/6J JCL mice (CLEA Japan, Inc., Tokyo, Japan) were used in all studies and were housed under pathogen-free conditions. Colitis was induced with 3% (w/v) DSS (MW 5000) in drinking water for seven days. PEG-AM (1.0, 5.0, and 25 nmol/kg) or saline (control) was administered intravenously one day before DSS treatment. Each group included 10 mice. Stool consistency, bleeding, and body weight were evaluated on days −1, 0, 3, 5, and 7. A total inflammation score was calculated. Mice were anesthetized with 3% isoflurane (Zoetis Japan, Tokyo, Japan), and the colon was excised on day 7. Following the protocol described in Section 4.6.1, this study was conducted to confirm the efficacy of 25 nmol/kg intravenous PEG-AM. Each treatment group consisted of 20 mice.

[2] = PEG-AM plasma concentration, Study No. P170454; type: in vivo; conditions: 1 nmol/kg single i.v.; mouse; fluorescence immunoassay
From the text: Figure 4 Dose-dependent effects of intravenous PEG-AM administration in DSS-induced colitis (Study No. P170454). (a) Overview of the experimental design. Groups: vehicle (n = 10), PEG-AM 1 nmol/kg (n = 10), 5 nmol/kg (n = 10), 25 nmol/kg (n = 10). (b) Total inflammation scores on day 8. (c) Colon length. (d) Colon weight-to-length ratio. (e) PEG-AM plasma concentrations on day 8.
Colitis was induced with 3% (w/v) DSS (MW 5000) in drinking water for seven days. PEG-AM (1.0, 5.0, and 25 nmol/kg) or saline (control) was administered intravenously one day before DSS treatment. Each group included 10 mice. Stool consistency, bleeding, and body weight were evaluated on days −1, 0, 3, 5, and 7. A total inflammation score was calculated. Mice were anesthetized with 3% isoflurane (Zoetis Japan, Tokyo, Japan), and the colon was excised on day 7.

RAMP1, RAMP2, RAMP3, CLR [3] = assay: Gene expression of receptor components in distal colon, Study No. P180567; type: in vivo, mouse; conditions: 25 nmol/kg i.v., qPCR, 2^-ΔΔCt, GAPDH normalization, vs control
From the text: Figure 5 Effect of 25 nmol/kg PEG-AM in DSS-induced colitis (Study No. P180567). (a) Overview of the experimental design. Groups: vehicle (n = 20), PEG-AM 25 nmol/kg (n = 20). (b) Total inflammation scores on day 8. ** p < 0.01, Mann–Whitney U test. (c) Bloody stool scores on day 8, *** p < 0.001, Mann–Whitney U test. (d) Colon length. (e) Colon weight-to-length ratio, ** p < 0.01, unpaired t-test. (f) PEG-AM plasma concentrations on day 8. (g–j) Fold changes in gene expression of RAMP1 (g), RAMP2 (h), RAMP3 (i), and CLR (j). * p < 0.05, unpaired t-test.
as §1
All reactions were performed in duplicate. Relative expression levels were calculated using the 2^−ΔΔCt method with GAPDH normalization.

40 kDa PEGylated adrenomedullin [PEG-AM]
RAMP2 expression (RAMP1, RAMP2, RAMP3, CLR [1]): increased in a dose-dependent manner; however, the increase was not statistically significant | Receptor component expression (RAMP1, RAMP2, RAMP3, CLR) (RAMP1, RAMP2, RAMP3, CLR [1]): No downregulation | Bloody stool score on day 8 (DSS-induced colitis; p = 0.0008, Mann-Whitney U test): significantly lower | Colon weight per unit length (DSS-induced colitis; p = 0.0024, unpaired t-test): significantly lower | Total inflammation score on day 8 (DSS-induced colitis; p = 0.0062, Mann-Whitney U test): significantly lower | Colon length (DSS-induced colitis; p = 0.1429, unpaired t-test): not significantly different | PEG-AM plasma concentration on day 8 [2]: undetectable | Gene expression of receptor components (RAMP1, RAMP2, RAMP3, CLR) (RAMP1, RAMP2, RAMP3, CLR [3]): no downregulation
